{
  "source": "patent US11453683B1",
  "about": "“KRas G12D inhibitors” (Mirati Therapeutics, Inc., priority 2019, dated 2022)",
  "data": [
    {"target": "KRas G12D (Homo sapiens (Human), UniProt P01116, G12D)", "sequence (P01116 other isoform, or with tags, fused parts or gaps G12D)": "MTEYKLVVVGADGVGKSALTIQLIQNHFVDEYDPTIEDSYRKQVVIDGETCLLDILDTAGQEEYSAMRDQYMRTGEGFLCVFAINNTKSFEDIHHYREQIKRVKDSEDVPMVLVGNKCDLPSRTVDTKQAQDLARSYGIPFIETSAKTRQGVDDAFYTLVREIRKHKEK", "assay": "KRas G12D Binding Assay (TR-FRET displacement)", "details": "TR-FRET displacement of Cy5 labelled tracer, GDP-loaded KRAS G12D, 60 minute incubation at 22° C.", "experimental": "After a 60 minute incubation at 22° C., the reaction was measured using a PerkinElmer EnVision multimode plate reader via TR-FRET dual wavelength detection, and the percent of control (POC) calculated using a ratiometric emission factor. […] The POC values were fit to a 4-parameter logistic curve and the IC50 value was determined as the concentration where the curve crosses 50 POC.", "units": {"IC50": "nM"}, "values": [
      {"compound": "COc1ccc(OC(F)(F)F)c(-c2ncc3c(N4CC5CCC(C4)N5)nc(OC[C@@]45CCCN4C[C@H](F)C5)nc3c2F)c1", "note": "(racemic) [Example 361, 4-((1R,5S)-3,8-diazabicyclo[3.2.1]octan-3-yl)-8-fluoro-2-((2-fluorotetrahydro-1H-pyrrolizin-7a(5H)-yl)methoxy)-7-(5-methoxy-2-(trifluoromethoxy)phenyl)pyrido[4,3-d]pyrimidine (racemic, trans)]", "IC50": 2700},
      {"compound": "Fc1c(-c2ccccc2C2CC2)ncc2c(N3CC4CCC(C3)N4)nc(OC[C@@]34CCCN3C[C@H](F)C4)nc12", "note": "(racemic) [Example 368, 4-((1R,5S)-3,8-diazabicyclo[3.2.1]octan-3-yl)-7-(2-cyclopropylphenyl)-8-fluoro-2-((2-fluorotetrahydro-1H-pyrrolizin-7a(5H)-yl)methoxy)pyrido[4,3-d]pyrimidine (racemic, trans)]", "IC50": 208},
      {"compound": "Oc1cccc(F)c1-c1ncc2c(N3CC4CCC(C3)N4)nc(OCC34CCCN3C[C@H](F)C4)nc2c1F", "note": "(mixture of isomers) [Example 369, 2-(4-((1R,5S)-3,8-diazabicyclo[3.2.1]octan-3-yl)-8-fluoro-2-((2-fluorotetrahydro-1H-pyrrolizin-7a(5H)-yl)methoxy)pyrido[4,3-d]pyrimidin-7-yl)-3-fluorophenol (racemic, trans)]", "IC50": 221}
    ]},
    {"tested_on": "KRas G12D-mediated phosphorylation of ERK", "assay": "Inhibition of KRas G12D-mediated phosphorylation of ERK in AGS cells", "type": "cell-based", "details": "Homo sapiens; AGS cells expressing G12D, 3 hours, phospho-ERK normalized to GAPDH", "in_short": "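Fixed, methanol-permeabilized; phospho-ERK (Thr202/Tyr204) by in-cell immunofluorescence normalized to GAPDH. Percent of DMSO control, IC50 by 4-parameter fit.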", "units": {"IC50": "nM"}, "values": [
      {"compound": "O=C1OCCN1C[C@H]1CC[C@@]2(COc3nc(N4CC5CCC(C4)N5)c4cnc(-c5cccc6cccc(Cl)c56)c(F)c4n3)CCCN12", "note": "[Example 442, 3-(((3R,7aR)-7a-(((4-(3,8-diazabicyclo[3.2.1]octan-3-yl)-7-(8-chloronaphthalen-1-yl)-8-fluoropyrido[4,3-d]pyrimidin-2-yl)oxy)methyl)hexahydro-1H-pyrrolizin-3-yl)methyl)oxazolidin-2-one]", "IC50": 1160},
      {"compound": "O=C(OC[C@H]1CC[C@@]2(COc3nc(N4CC5CCC(C4)N5)c4cnc(-c5cccc6cccc(Cl)c56)c(F)c4n3)CCCN12)N1CCCC1", "note": "[Example 443, ((3R,7aR)-7a-(((4-(3,8-diazabicyclo[3.2.1]octan-3-yl)-7-(8-chloronaphthalen-1-yl)-8-fluoropyrido[4,3-d]pyrimidin-2-yl)oxy)methyl)hexahydro-1H-pyrrolizin-3-yl)methyl pyrrolidine-1-carboxylate]", "IC50": 160},
      {"compound": "O=C(OC[C@H]1CC[C@@]2(COc3nc(N4CC5CCC(C4)N5)c4cnc(-c5cccc6cccc(Cl)c56)c(F)c4n3)CCCN12)N1CCCCC1", "note": "[Example 444, ((3R,7aR)-7a-(((4-(3,8-diazabicyclo[3.2.1]octan-3-yl)-7-(8-chloronaphthalen-1-yl)-8-fluoropyrido[4,3-d]pyrimidin-2-yl)oxy)methyl)hexahydro-1H-pyrrolizin-3-yl)methyl piperidine-1-carboxylate]", "IC50": 365},
      {"compound": "O=C(OC[C@H]1CC[C@@]2(COc3nc(N4CC5CCC(C4)N5)c4cnc(-c5cccc6cccc(Cl)c56)c(F)c4n3)CCCN12)N1CCOCC1", "note": "[Example 445, ((3R,7aR)-7a-(((4-(3,8-diazabicyclo[3.2.1]octan-3-yl)-7-(8-chloronaphthalen-1-yl)-8-fluoropyrido[4,3-d]pyrimidin-2-yl)oxy)methyl)hexahydro-1H-pyrrolizin-3-yl)methyl morpholine-4-carboxylate]", "IC50": 130},
      {"compound": "C[C@H]1C[C@@H]1c1c(Cl)cc(O)cc1-c1ncc2c(N3C[C@H]4CC[C@@H](C3)N4)nc(OC[C@@]34CCCN3C[C@H](F)C4)nc2c1F", "note": "[Example 451, 3-(4-((1R,5S)-3,8-diazabicyclo[3.2.1]octan-3-yl)-8-fluoro-2-(((2R,7aS)-2-fluorotetrahydro-1H-pyrrolizin-7a(5H)-yl)methoxy)pyrido[4,3-d]pyrimidin-7-yl)-5-chloro-4-((1S,2S)-2-methylcyclopropyl)phenol]", "IC50": 78.3}
    ]}
  ]
}
